Here are results for 23 compounds from patent publication US20100305068A1, “COMPOUNDS AND METHODS FOR MODULATING PROTEIN TRAFFICKING” (priority 2006, published 2010).

This assay relates to pdr5 ypt1^ts cells. In words: microbe, parasite or virus in culture. The format is cell-based, yeast. To be noted: 37° C.; for minimal effective concentration: Saccharomyces cerevisiae, lowest concentration tested giving growth above the 0 μM background, read-out: ypt1-ts MRC (minimal rescue concentration); for minimal effective concentration / optical density, ypt1-ts, 0.39 / optical density, ypt1-ts, 0.78 / optical density, ypt1-ts, 1.56 / optical density, ypt1-ts, 3.13 / optical density, ypt1-ts, 6.25 / optical density, ypt1-ts, 12.5 / optical density, ypt1-ts, 25: Table 2; for optical density, ypt1-ts, 0.39: 0.39 μM compound; for optical density, ypt1-ts, 0.39 / optical density, ypt1-ts, 0.78 / optical density, ypt1-ts, 1.56 / optical density, ypt1-ts, 3.13 / optical density, ypt1-ts, 6.25 / optical density, ypt1-ts, 12.5 / optical density, ypt1-ts, 25: background (0 μM) 0.058; for optical density, ypt1-ts, 0.78: 0.78 μM compound; for optical density, ypt1-ts, 1.56: 1.56 μM compound; for optical density, ypt1-ts, 3.13: 3.13 μM compound; for optical density, ypt1-ts, 6.25: 6.25 μM compound; for optical density, ypt1-ts, 12.5: 12.5 μM compound; for optical density, ypt1-ts, 25: 25 μM compound; for optical density, 3.13 uM / optical density, 12.5 uM / optical density, 50 uM: Table 3, background (0 uM) 0.077; for optical density, 3.13 uM: 3.13 uM compound; for optical density, 12.5 uM: 12.5 uM compound; for optical density, 50 uM: 50 uM compound. From the text: The activity of the compounds as modulators of protein trafficking may be measured in the assays described herein that evaluate the ability of a compound to rescue an impairment in protein trafficking. For example, the yeast mutant cell line ypt1^ts can be used to identify compounds that rescue cells from the lethal phenotype of a mutant YPT1 allele (see, e.g., Examples and Schmitt et al. (1988) Cell 53:635-47). The activity may be measured, for example, in a whole yeast cell assay using 384-well screening protocol and an optical density measurement.
The yeast mutant cell line ypt1^ts suppresses, in a temperature dependent fashion, the dominant-lethal phenotype of a mutant YPT1 allele (Schmitt et al. (1988) Cell 53:635-47). ypt1^ts cells grow normally at temperatures up to 30° C., but are growth arrested at 37° C. (Id.).
A library of compounds (“The Spectrum Collection”) obtained from Microsource Discovery Systems, Inc. (Gaylordsville, Conn.) was screened to assess the ability of individual compounds to restore growth of ypt1^ts cells. Screening was carried out using ypt1^ts cells containing a mutation in the pdr5 gene (resulting in inactivation of a membrane efflux pump). The effect of the compounds was measured in pdr5 ypt1^ts cells cultured at 37° C.

For the compound `CC(C)C1=CC2=CCC3[C@](C)(CCC[C@]3(C)C(=O)O)C2CC1` (stereo partly shown) [ABIETIC ACID], the minimal effective concentration is 3.13 µM; the “optical density, ypt1-ts, 0.39” value is 0.107; the “optical density, ypt1-ts, 0.78” value came out at 0.079; the “optical density, ypt1-ts, 1.56” value came to 0.1. The “optical density, ypt1-ts, 3.13” value is on record as 0.165; the “optical density, ypt1-ts, 6.25” value is 0.173; the “optical density, ypt1-ts, 12.5” value came out at 0.528; the “optical density, ypt1-ts, 25” value amounted to 0.61.

For `CC(=O)Nc1ccc(OC(=O)c2ccccc2O)cc1` [ACETAMINOSALOL, reference compound], the minimal effective concentration stood at 12.5 µM; the “optical density, ypt1-ts, 0.39” value turned out to be 0.085; the “optical density, ypt1-ts, 0.78” value came out at 0.078; the “optical density, ypt1-ts, 1.56” value came out at 0.083. Moreover, the “optical density, ypt1-ts, 3.13” value was 0.085; the “optical density, ypt1-ts, 6.25” value was determined as 0.103; the “optical density, ypt1-ts, 12.5” value is recorded as 0.127; the “optical density, ypt1-ts, 25” value is given as 0.198.

As for `CC(=O)OCC[N+](C)(C)C.[Cl-]` [ACETYLCHOLINE, reference compound], the minimal effective concentration came out at 6.25 µM; the “optical density, ypt1-ts, 0.39” value is given as 0.104; the “optical density, ypt1-ts, 0.78” value is given as 0.087; the “optical density, ypt1-ts, 1.56” value was 0.085. Further, the “optical density, ypt1-ts, 3.13” value was 0.113; the “optical density, ypt1-ts, 6.25” value is 0.164; the “optical density, ypt1-ts, 12.5” value was determined as 0.27; the “optical density, ypt1-ts, 25” value amounted to 0.352.

On to `C[n+]1c2cc(N)ccc2cc2ccc(N)cc21.[Cl-]` [ACRIFLAV- INIUM HYDRO- CHLORIDE, reference compound], for which the “optical density, 3.13 uM” value came to 0.126; the “optical density, 12.5 uM” value came out at 0.229; the “optical density, 50 uM” value turned out to be 0.151.

In the case of `CCc1cccc(CC)c1N(COC)C(=O)CCl` [ALACHLOR], the “optical density, 3.13 uM” value worked out at 0.101; the “optical density, 12.5 uM” value is reported as 0.142; the “optical density, 50 uM” value is 0.45.

With `COc1c2c(cc3c1OCO3)[C@]13C=C[C@H](OC)C[C@H]1N(C2)C[C@@H]3O` [AMBELLINE], the “optical density, 3.13 uM” value was found to be 0.071; the “optical density, 12.5 uM” value came out at 0.302; the “optical density, 50 uM” value came to 0.057.

In the case of `COc1ccc([C@@H](C)C(=O)c2ccc(O)cc2O)cc1` [ANGOLENSIN (R)], the “optical density, 3.13 uM” value is on record as 0.327; the “optical density, 12.5 uM” value turned out to be 0.652; the “optical density, 50 uM” value was found to be 0.062.

Turning to `CC(=O)O[C@@H]1C[C@@]2(C)[C@H](c3ccoc3)C[C@H]3O[C@]32[C@]2(C)C(=O)C(O)=C3C(C)(C)C(=O)C=C[C@]3(C)[C@@H]12` [ANTHOTHECOL], the minimal effective concentration came to 3.13 µM; the “optical density, ypt1-ts, 0.39” value was found to be 0.161; the “optical density, ypt1-ts, 0.78” value was found to be 0.085; the “optical density, ypt1-ts, 1.56” value was found to be 0.12. Also, the “optical density, ypt1-ts, 3.13” value is given as 0.262; the “optical density, ypt1-ts, 6.25” value is reported as 0.537; the “optical density, ypt1-ts, 12.5” value was 0.581; the “optical density, ypt1-ts, 25” value was determined as 0.557.

Consider `C#CCCCCCCCCCCCC(O)CC(O)CO` (stereo not shown) [AVO- CADYNE], for which the “optical density, 3.13 uM” value was determined as 0.132; the “optical density, 12.5 uM” value came to 0.425; the “optical density, 50 uM” value was 0.265.

As for `C#CCCCCCCCCCCCC(=O)CC(O)COC(C)=O` (stereo not shown) [AVO- CADYNONE ACETATE], the “optical density, 3.13 uM” value stood at 0.126; the “optical density, 12.5 uM” value is reported as 0.275; the “optical density, 50 uM” value turned out to be 0.057.

As to `C=CCCCCCCCCCCCC(O)CC(O)CO` (stereo not shown) [AVOCADENE], the minimal effective concentration is 6.25 µM; the “optical density, ypt1-ts, 0.39” value is listed as 0.097; the “optical density, ypt1-ts, 0.78” value was 0.074; the “optical density, ypt1-ts, 1.56” value stood at 0.09. The “optical density, ypt1-ts, 3.13” value worked out at 0.108; the “optical density, ypt1-ts, 6.25” value is 0.134; the “optical density, ypt1-ts, 12.5” value stood at 0.209; the “optical density, ypt1-ts, 25” value worked out at 0.408.

As to `C#CCCCCCCCCCCCC(O)CC(O)COC(C)=O` (stereo not shown) [AVOCADYNE ACETATE], the “optical density, 3.13 uM” value came to 0.389; the “optical density, 12.5 uM” value is given as 0.406; the “optical density, 50 uM” value is 0.039.

Take `O=C1c2ccccc2-c2cccc3cccc1c23` [BENZANTHRONE]: the minimal effective concentration was found to be 3.13 µM; the “optical density, ypt1-ts, 0.39” value is given as 0.108; the “optical density, ypt1-ts, 0.78” value was 0.09; the “optical density, ypt1-ts, 1.56” value is reported as 0.123. Besides, the “optical density, ypt1-ts, 3.13” value amounted to 0.263; the “optical density, ypt1-ts, 6.25” value turned out to be 0.491; the “optical density, ypt1-ts, 12.5” value amounted to 0.547; the “optical density, ypt1-ts, 25” value amounted to 0.383.

As to `COc1ccc(-c2coc3cc(O)cc(O)c3c2=O)cc1` [BIO- CHANIN A], the “optical density, 3.13 uM” value stood at 0.112; the “optical density, 12.5 uM” value is on record as 0.297; the “optical density, 50 uM” value is reported as 0.055.

`CC1(C)CC2C1CCC1(CBr)CC[C@H]3C(CC(=O)O)C(=O)OC23C1` (stereo partly shown) [BROMO-3-HYDROXY- 4-(SUCCIN-2-YL)- CARYOLANE gamma- LACTONE]: the minimal effective concentration came out at 6.25 µM; the “optical density, ypt1-ts, 0.39” value was 0.091; the “optical density, ypt1-ts, 0.78” value was found to be 0.079; the “optical density, ypt1-ts, 1.56” value was determined as 0.091. The “optical density, ypt1-ts, 3.13” value was found to be 0.101; the “optical density, ypt1-ts, 6.25” value was 0.139; the “optical density, ypt1-ts, 12.5” value stood at 0.245; the “optical density, ypt1-ts, 25” value is listed as 0.417.

With `COC(=O)C[C@H]1C(C)(C)C(=O)[C@@H]2CC3C4=CC(=O)O[C@@H](c5ccoc5)[C@]4(C)CCC3[C@]1(C)C2=O` (stereo partly shown) [CARAPIN], the “optical density, 3.13 uM” value was found to be 0.22; the “optical density, 12.5 uM” value was found to be 0.357; the “optical density, 50 uM” value was 0.5.

Consider `CNC(=O)Oc1cccc2c1OC(C)(C)C2` [CARBO- FURAN], for which the “optical density, 3.13 uM” value came to 0.176; the “optical density, 12.5 uM” value stood at 0.264; the “optical density, 50 uM” value is listed as 0.239.

As to `C=C1CCC(OC(C)=O)/C(C)=C/C[C@@H]2[C@@H]1CC2(C)C` (stereo partly shown) [CARY[…]], the minimal effective concentration stood at 12.5 µM; the “optical density, ypt1-ts, 0.39” value was found to be 0.087; the “optical density, ypt1-ts, 0.78” value was 0.076; the “optical density, ypt1-ts, 1.56” value came to 0.084. In addition, the “optical density, ypt1-ts, 3.13” value was 0.1; the “optical density, ypt1-ts, 6.25” value stood at 0.109; the “optical density, ypt1-ts, 12.5” value worked out at 0.239; the “optical density, ypt1-ts, 25” value is listed as 0.258.

As for `CC1(C)C(=O)C=C[C@@]2(C)C1=C(O)C(=O)[C@]1(C)[C@@H]2CC[C@@]2(C)[C@H](c3ccoc3)C[C@H]3O[C@]321` [CEDRELONE], the minimal effective concentration is 1.56 µM; the “optical density, ypt1-ts, 0.39” value amounted to 0.221; the “optical density, ypt1-ts, 0.78” value came to 0.124; the “optical density, ypt1-ts, 1.56” value was found to be 0.264. Besides, the “optical density, ypt1-ts, 3.13” value is recorded as 0.49; the “optical density, ypt1-ts, 6.25” value is 0.532; the “optical density, ypt1-ts, 12.5” value was found to be 0.541; the “optical density, ypt1-ts, 25” value is 0.496.

For the compound `CC(CCC(=O)O)[C@H]1CCC2C3C(CC[C@@]21C)[C@@]1(C)CC[C@@H](O)C[C@H]1C[C@H]3O` (stereo partly shown) [CHENODIOL, reference compound], the “optical density, 3.13 uM” value stood at 0.126; the “optical density, 12.5 uM” value turned out to be 0.285; the “optical density, 50 uM” value was found to be 0.15.

With `CCOP(=S)(OCC)Oc1nc(Cl)c(Cl)cc1Cl` [CHLOR- PYRIFOS], the “optical density, 3.13 uM” value was found to be 0.122; the “optical density, 12.5 uM” value is listed as 0.166; the “optical density, 50 uM” value is recorded as 0.253.

Regarding `CC(=O)O[C@]1(C(C)=O)CC[C@H]2[C@@H]3C=C(Cl)C4=CC(=O)CC[C@]4(C)[C@H]3CC[C@@]21C` [CHLORMADINONE ACETATE, reference compound], the minimal effective concentration stood at 12.5 µM; the “optical density, ypt1-ts, 0.39” value came to 0.193; the “optical density, ypt1-ts, 0.78” value worked out at 0.078; the “optical density, ypt1-ts, 1.56” value is 0.088. For the same compound, the “optical density, ypt1-ts, 3.13” value stood at 0.112; the “optical density, ypt1-ts, 6.25” value was determined as 0.11; the “optical density, ypt1-ts, 12.5” value is 0.2; the “optical density, ypt1-ts, 25” value is recorded as 0.296.

On to `CC(C)OC(=O)Nc1cccc(Cl)c1` [CHLORPROPHAM], for which the minimal effective concentration turned out to be 25 µM; the “optical density, ypt1-ts, 0.39” value was determined as 0.086; the “optical density, ypt1-ts, 0.78” value was 0.072; the “optical density, ypt1-ts, 1.56” value turned out to be 0.081. Besides, the “optical density, ypt1-ts, 3.13” value stood at 0.09; the “optical density, ypt1-ts, 6.25” value amounted to 0.096; the “optical density, ypt1-ts, 12.5” value came out at 0.101; the “optical density, ypt1-ts, 25” value is listed as 0.145.
